For this assay, the target named is T1, PCP site on NMDA receptor.
T1 construct: gene Grin1; PCP (channel pore) site of the NMDA receptor complex
The assay is described as follows: PCP-site binding assay. The note with it: read-out: PCP site / IC50/Ki. The source says:
PCP-site binding assay on PCP site on NMDA receptor

Take Nor-Ketamir: the IC50 is approximately 470 µM. Take `CNC1(c2ccccc2Cl)CCCC1=O` (centres unmarked) [Ketamir-2, 1-(2-chlorophenyl)-N-methyl-2-oxocyclopentan-1-aminium]: the IC50 is approximately 100 µM.

(Values after article PMC12231361, “KETAMIR-2, a new molecular entity and novel ketamine analog” (Frontiers in Pharmacology, 2025).)
